Results from PubChem BioAssay AID504344 (Broad Institute, 2011).
Activity calls are given as the source filed them.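 How the source made its calls: active means fitted curve reaches 10% of the positive control caspase activation at or below the top valid tested dose; inactive means signal shifts the opposite way, plus the rest.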

test system: not listed separately; experiment: caspase activation in Bax/Bak-null MEFs, dose response, counter-screen for Bcl2-A1 inhibitor project, cell-based, mouse embryonic fibroblasts, dry powder, set 2 (AID 504344); details: Bax/Bak-/- MEF caspase activation, CaspaseGlo luminescence, 3 h; at 35 µM (top of the series)

Row | SMILES | caspase activation
1 | O=[N+]([O-])c1cnc2ccccc2c1Sc1ccccc1 | 2.51% (inactive)
2 | O=C(Oc1cccc(/C=N/Nc2nc(Nc3ccccc3)nc(N3CCOCC3)n2)c1)c1ccco1 | 0.026% (inactive)
3 | O=c1oc2ccccc2c(N2CCCCC2)c1[N+](=O)[O-] | -0.245% (inactive)
4 | Cc1ccc(Sc2c([N+](=O)[O-])cnc3ccccc23)cc1 | 3.45% (inactive)
5 | Cn1c(=O)c([N+](=O)[O-])c(Oc2ccccc2)c2ccccc21 | 0.272% (inactive)
6 | Cc1ccc(Sc2c([N+](=O)[O-])c(=O)n(C)c3ccccc23)cc1 | 1.18% (inactive)
7 | Cn1c(=O)c([N+](=O)[O-])c(-n2cnc3ccccc32)c2ccccc21 | 0.662% (inactive)
8 | Cc1ccc(Nc2c([N+](=O)[O-])c(=O)oc3ccccc23)cc1 | -0.021% (inactive)
9 | Cn1c(=O)c([N+](=O)[O-])c(Nc2ccc(Cl)cc2)c2ccccc21 | 0.654% (inactive)
10 | Cn1c(=O)c([N+](=O)[O-])c(Cl)c2ccccc21 | 0.515% (inactive)
11 | O=c1oc2ccccc2c(Nc2cc(Cl)cc(Cl)c2)c1[N+](=O)[O-] | -0.079% (inactive)
12 | O=c1oc2ccccc2c(Cl)c1[N+](=O)[O-] | -0.981% (inactive)
13 | Cc1ccc(Sc2cc(=O)n(C)c3ccccc23)cc1 | -0.817% (inactive)
14 | O=c1oc2ccccc2c(Sc2ccccc2)c1[N+](=O)[O-] | -0.438% (inactive)
15 | CCOCCCNc1c([N+](=O)[O-])c(=O)n(C)c2ccccc12 | 0.166% (inactive)
16 | CN1C(=O)C(C)(C)N(Cc2ccccc2)c2ccccc21 | -0.187% (inactive)
17 | CCOC(=O)N1CCN(c2c([N+](=O)[O-])c(=O)n(C)c3ccccc23)CC1 | -0.062% (inactive)
18 | CCSc1c([N+](=O)[O-])c(=O)oc2ccccc12 | 0.365% (inactive)
19 | Cc1ccc(Nc2c([N+](=O)[O-])c(=O)n(C)c3ccccc23)cc1 | 0.3% (inactive)
20 | C/C1=C/C(=O)O[C@@H]2C[C@@H](CC[C@H](C)/C=C\CC1)O[C@@](O)(C1CSC(=O)N1)C2 (stereo partly specified) | 0.173% (inactive)

test system: Bax/Bak-/- MEF caspase activation, CaspaseGlo luminescence, 3 h; experiment: as above; details: not given

Row | SMILES | AC10
21 | Cc1ccc(Sc2c([N+](=O)[O-])c(=O)oc3ccccc23)cc1 | > 35 µM (inactive)
